# From patent US7514448B2, “Azaindoles useful as inhibitors of rock and other protein kinases” (Vertex Pharmaceuticals Incorporated, priority 2004, dated 2009)
# pKi: −log10 of the molar value.
# Key:
# Assay type in all cases: biochemical
# ROCK = ROCK (Homo sapiens, UniProt Q13464); test: ROCK radioactive assay ("33P"); conditions: radioactive assay; average Ki if more than one determined; read-out: ROCK 33P Ki
# Text: (§1) If more than one value of Ki has been determined, the average Ki is indicated. If no value is indicated, then the Ki was not determined.
# PKA = PKA (Homo sapiens, UniProt P17612); test: PKA inhibition assay, coupled enzyme; conditions: average Ki if more than one determined
# Summary of the method: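 Coupled PK/LDH assay following NADH depletion: 18 nM PKA, 50 μM ATP, 80 μM Kemptide in 100 mM HEPES pH 7.5, 10 mM MgCl2, 25 mM NaCl, 1 mM DTT, 3% DMSO, at 30 °C. Compound preincubated 10 min before ATP start; initial rates over 15 min, IC50 and Ki by non-linear regression.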
# ROCK I (AA 6-553) = ROCK I (AA 6-553) (Homo sapiens, UniProt Q13464); test: ROCK inhibition assay, coupled enzyme system ("Enzyme"); conditions: enzyme-linked assay; average Ki if more than one determined
# ROCK I (AA 6-553), sequence (Q13464 6-553, species assumed): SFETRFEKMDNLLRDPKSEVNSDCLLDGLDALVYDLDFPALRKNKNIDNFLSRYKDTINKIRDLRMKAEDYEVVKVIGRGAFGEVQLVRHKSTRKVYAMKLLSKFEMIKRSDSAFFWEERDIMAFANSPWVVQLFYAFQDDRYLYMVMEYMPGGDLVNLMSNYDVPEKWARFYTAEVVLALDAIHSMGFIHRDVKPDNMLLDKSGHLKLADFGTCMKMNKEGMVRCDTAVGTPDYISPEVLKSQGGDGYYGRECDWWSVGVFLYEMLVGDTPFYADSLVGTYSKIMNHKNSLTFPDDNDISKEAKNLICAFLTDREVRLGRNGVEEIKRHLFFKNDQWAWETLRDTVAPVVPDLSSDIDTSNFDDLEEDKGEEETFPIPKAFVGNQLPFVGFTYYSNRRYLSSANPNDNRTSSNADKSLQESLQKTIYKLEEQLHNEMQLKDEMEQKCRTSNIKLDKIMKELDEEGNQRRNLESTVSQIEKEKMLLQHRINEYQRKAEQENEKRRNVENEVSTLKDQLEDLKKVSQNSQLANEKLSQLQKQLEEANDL
# Experimental: Reactions were carried out in a solution containing 100 mM HEPES (pH 7.5), 10 mM MgCl2, 25 mM NaCl, 2 mM DTT and 1.5% DMSO.
# as §1
# ROCK, sequence (Q13464 whole entry): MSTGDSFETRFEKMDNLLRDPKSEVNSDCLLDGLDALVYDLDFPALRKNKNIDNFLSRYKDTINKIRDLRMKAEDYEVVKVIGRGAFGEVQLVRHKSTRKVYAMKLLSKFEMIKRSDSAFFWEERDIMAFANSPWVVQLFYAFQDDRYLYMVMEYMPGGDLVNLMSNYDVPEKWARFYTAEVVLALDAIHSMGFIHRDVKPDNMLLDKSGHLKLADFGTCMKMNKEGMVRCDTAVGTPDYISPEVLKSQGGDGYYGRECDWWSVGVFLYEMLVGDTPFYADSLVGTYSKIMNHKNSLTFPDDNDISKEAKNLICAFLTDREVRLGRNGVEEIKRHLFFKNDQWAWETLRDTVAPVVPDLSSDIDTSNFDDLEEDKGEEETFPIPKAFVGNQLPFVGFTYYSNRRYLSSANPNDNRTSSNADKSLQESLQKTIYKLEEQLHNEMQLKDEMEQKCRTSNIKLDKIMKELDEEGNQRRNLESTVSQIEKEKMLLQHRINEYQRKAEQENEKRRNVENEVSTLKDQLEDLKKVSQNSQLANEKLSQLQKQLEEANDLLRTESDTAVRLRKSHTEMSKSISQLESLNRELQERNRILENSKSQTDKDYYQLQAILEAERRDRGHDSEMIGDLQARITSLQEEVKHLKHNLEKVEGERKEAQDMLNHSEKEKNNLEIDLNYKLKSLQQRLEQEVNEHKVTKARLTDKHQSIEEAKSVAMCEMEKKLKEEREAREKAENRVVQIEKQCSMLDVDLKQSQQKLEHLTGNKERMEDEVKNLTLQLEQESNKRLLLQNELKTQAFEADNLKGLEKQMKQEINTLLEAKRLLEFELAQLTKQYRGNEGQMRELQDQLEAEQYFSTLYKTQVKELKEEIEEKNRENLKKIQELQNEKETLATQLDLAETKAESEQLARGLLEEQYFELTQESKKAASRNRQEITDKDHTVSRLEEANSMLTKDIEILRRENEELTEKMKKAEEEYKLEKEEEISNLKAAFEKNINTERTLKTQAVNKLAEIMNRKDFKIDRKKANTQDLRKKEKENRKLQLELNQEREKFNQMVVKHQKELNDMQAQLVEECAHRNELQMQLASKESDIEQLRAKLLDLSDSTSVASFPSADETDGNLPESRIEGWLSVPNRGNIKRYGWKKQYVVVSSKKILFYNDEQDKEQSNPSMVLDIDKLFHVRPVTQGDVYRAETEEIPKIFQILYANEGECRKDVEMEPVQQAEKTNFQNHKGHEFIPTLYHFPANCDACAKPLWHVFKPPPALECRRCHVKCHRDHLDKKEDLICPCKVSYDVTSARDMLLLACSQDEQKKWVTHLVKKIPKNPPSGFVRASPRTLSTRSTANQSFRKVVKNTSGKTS
Structure (SMILES),pKi (ROCK),pKi (PKA),pKi (ROCK I (AA 6-553))
O=C(Cc1ccc(OCCN2CCNCC2)cc1Cl)Nc1nc(-c2c[nH]c3ncccc23)cs1 [II-108],> 6.30,5.30 to 6.30,> 6.30
O=C(Cc1cccc(S(=O)(=O)NCCCN2CCNCC2)c1)Nc1nc(-c2c[nH]c3ncccc23)cs1 [II-123],> 6.30,> 6.30,> 6.30
CS(=O)(=O)Nc1cccc(CNC(=O)c2cc(-c3c[nH]c4ncccc34)cs2)c1 [II-106],,> 6.30,> 6.30
CS(=O)(=O)Nc1cccc(CC(=O)Nc2cc(-c3c[nH]c4ncccc34)cs2)c1 [II-33],,> 6.30,> 6.30
CCN(CC)S(=O)(=O)c1cccc(CC(=O)Nc2csc(-c3c[nH]c4ncccc34)n2)c1 [II-63],,5.30 to 6.30,> 6.30
CN1CCCN(S(=O)(=O)c2cccc(CC(=O)Nc3nc(-c4c[nH]c5ncccc45)cs3)c2)CC1 [II-52],,> 6.30,> 6.30
O=C(Cc1cccc(OCCCC2CCNCC2)c1)Nc1nc(-c2c[nH]c3nccc(F)c23)cs1 [II-17],,5.30 to 6.30,> 6.30
O=C(Cc1ccc(F)cc1)Nc1csc(-c2c[nH]c3ncccc23)n1 [II-61],,> 6.30,> 6.30
O=C(Cc1cccc(S(=O)(=O)N2CCCCC2)c1)Nc1nc(-c2c[nH]c3ncccc23)cs1 [II-112],,5.30 to 6.30,> 6.30
COc1cccc(CNC(=O)c2cc(-c3c[nH]c4ncccc34)cs2)c1 [II-71],,> 6.30,> 6.30
O=C(NCc1ccccc1)c1ccc(-c2c[nH]c3ncccc23)s1 [II-29],,> 6.30,> 6.30
COc1cccc(C2CCCN(c3nc(-c4c[nH]c5ncccc45)cs3)C2=O)c1 (stereo not shown) [II-96],,> 6.30,> 6.30
Cc1sc(NC(=O)Cc2cccc(S(=O)(=O)N3CCOCC3)c2)nc1-c1c[nH]c2ncccc12 [II-101],,5.30 to 6.30,5.30 to 6.30
O=C(Cc1ccccc1F)Nc1nc(-c2c[nH]c3nccc(F)c23)cs1 [II-11],,> 6.30,> 6.30
CCS(=O)(=O)Nc1ccc(CC(=O)Nc2nc(-c3c[nH]c4ncccc34)cs2)c(Cl)c1 [II-35],,5.30 to 6.30,> 6.30
O=C(Cc1cc2c(cc1Cl)OCO2)N(c1nc(-c2c[nH]c3ncccc23)cs1)C1CC1 [II-88],,> 6.30,> 6.30
O=C(Cc1ccc(F)cc1)Nc1nc(-c2c[nH]c3nccc(F)c23)cs1 [II-12],,> 6.30,> 6.30
CS(=O)(=O)Nc1ccc(CC(=O)Nc2nc(-c3c[nH]c4ncccc34)cs2)c(Cl)c1 [II-47],,> 6.30,> 6.30
COc1cccc(CC(=O)Nc2nc(-c3c[nH]c4ncccc34)c(C)s2)c1 [II-99],,5.30 to 6.30,> 6.30
COc1cccc(CC(=O)Nc2nnc(-c3c[nH]c4ncccc34)s2)c1 [I-21],,> 6.30,> 6.30
CS(=O)(=O)Nc1cccc(CC(=O)N(c2nc(-c3c[nH]c4ncccc34)cs2)C2CC2)c1 [II-27],,> 6.30,> 6.30
O=C(Cc1cccc(S(=O)(=O)N2CCNCC2)c1)Nc1nc(-c2c[nH]c3ncccc23)cs1 [II-25],,> 6.30,> 6.30
O=C(Cc1ccccc1)Nc1nc(-c2c[nH]c3nccc(F)c23)cs1 [II-16],,> 6.30,> 6.30

Structure (SMILES),pKi (ROCK),pKi (PKA),pKi (ROCK I (AA 6-553))
O=C(Cc1cc2c(cc1Cl)OCO2)Nc1nc(-c2c[nH]c3ncccc23)cs1 [I-13],,> 6.30,> 6.30
c1cnc2[nH]cc(-c3csc(NC4CC4)n3)c2c1 [II-3],,5.30 to 6.30,5.30 to 6.30
CC(C)(C)OC(=O)N1CCC(CCCOc2cccc(CC(=O)Nc3nc(-c4c[nH]c5ncccc45)cs3)c2)CC1 [I-9],,5.30 to 6.30,> 6.30
O=C(Cc1ccccc1F)Nc1csc(-c2c[nH]c3ncccc23)n1 [II-60],,> 6.30,> 6.30
CS(=O)(=O)c1ccc(CC(=O)Nc2nc(-c3c[nH]c4ncccc34)cs2)cc1 [II-74],,5.30 to 6.30,> 6.30
CS(=O)(=O)Nc1cccc(CC(=O)Nc2nc(-c3c[nH]c4ncc(Br)cc34)cs2)c1 [II-78],,5.30 to 6.30,> 6.30
O=C(Cc1ccccc1F)N(c1nc(-c2c[nH]c3ncccc23)cs1)C1CC1 [II-44],,> 6.30,> 6.30
O=C(Cc1cccc(S(=O)(=O)N2CCOCC2)c1)N(c1nc(-c2c[nH]c3ncccc23)cs1)C1CC1 [II-87],,> 6.30,> 6.30
COc1cccc(CC(=O)Nc2nc(-c3c[nH]c4ncc(Cl)cc34)cs2)c1 [II-103],,> 6.30,> 6.30
COc1cccc(CC(=O)Nc2nc(-c3c[nH]c4ncc(Br)cc34)cs2)c1 [II-77],,5.30 to 6.30,> 6.30
O=C(Cc1ccccc1F)Nc1nnc(-c2c[nH]c3ncccc23)s1 [I-23],,> 6.30,> 6.30
O=C(Cc1cccc(S(=O)(=O)N[C@H]2CCOC2)c1)Nc1nc(-c2c[nH]c3ncccc23)cs1 [II-42],,> 6.30,> 6.30
O=C(Cc1cccc(S(=O)(=O)NC2CC2)c1)Nc1nc(-c2c[nH]c3ncccc23)cs1 [II-6],,> 6.30,> 6.30
CN1CCN(CCOc2cccc(CC(=O)N(c3nc(-c4c[nH]c5ncccc45)cs3)C3CC3)c2)CC1 [II-86],,5.30 to 6.30,> 6.30
CCN(CC)S(=O)(=O)c1cccc(CC(=O)Nc2nc(-c3c[nH]c4nccc(F)c34)cs2)c1 [II-67],,5.30 to 6.30,> 6.30
O=C(Cc1ccc(F)cc1F)Nc1nnc(-c2c[nH]c3ncccc23)s1 [I-22],,> 6.30,> 6.30
CN1CCN(CCCOc2cccc(CC(=O)Nc3nc(-c4c[nH]c5nccc(F)c45)cs3)c2)CC1 [II-37],,5.30 to 6.30,> 6.30
Cc1sc(NC(=O)Cc2ccccc2)nc1-c1c[nH]c2ncccc12 [II-98],,5.30 to 6.30,> 6.30
O=C(Cc1cccc(S(=O)(=O)N2CCOCC2)c1)Nc1cc(-c2c[nH]c3ncccc23)cs1 [II-59],,> 6.30,> 6.30
CS(=O)(=O)Nc1cccc(CC(=O)Nc2nc(-c3c[nH]c4nccc(F)c34)cs2)c1 [II-14],,5.30 to 6.30,> 6.30
O=C(CCc1ccccc1)Nc1nc(-c2c[nH]c3nccc(F)c23)cs1 [II-15],,> 6.30,> 6.30
O=C(Cc1ccc(F)cc1)Nc1nnc(-c2c[nH]c3ncccc23)s1 [II-7],,> 6.30,> 6.30
O=C(Cc1cccc(OCCCC2CCNCC2)c1)Nc1nc(-c2c[nH]c3nccc(Cl)c23)cs1 [II-95],,> 6.30,> 6.30

Structure (SMILES),pKi (ROCK),pKi (PKA),pKi (ROCK I (AA 6-553))
O=C(CCc1ccccc1)Nc1nc(-c2c[nH]c3ncccc23)cs1 [I-7],,> 6.30,> 6.30
CC(=O)N1[C@H](C)CN(c2nc(-c3c[nH]c4ncc(Cl)cc34)cs2)C[C@@H]1C [II-43],,5.30 to 6.30,5.30 to 6.30
CN1CCN(CCCOc2cccc(CC(=O)N(c3nc(-c4c[nH]c5ncccc45)cs3)C3CC3)c2)CC1 [II-84],,5.30 to 6.30,> 6.30
CS(=O)(=O)Nc1cccc(CC(=O)Nc2nnc(-c3c[nH]c4ncccc34)s2)c1 [II-9],,> 6.30,> 6.30
O=C(Cc1ccccc1F)Nc1nc(-c2c[nH]c3ncccc23)cs1 [I-3],,> 6.30,> 6.30
COc1ccc(CC(=O)N(c2nc(-c3c[nH]c4ncccc34)cs2)C2CC2)c(Cl)c1 [II-75],,> 6.30,> 6.30
O=C(Cc1cccc(OCCCC2CCNCC2)c1)N(c1nc(-c2c[nH]c3ncccc23)cs1)C1CC1 [II-76],,5.30 to 6.30,> 6.30
Nc1ccc(CC(=O)Nc2nc(-c3c[nH]c4ncccc34)cs2)c(Cl)c1 [II-34],,> 6.30,> 6.30
CS(=O)(=O)Nc1cccc(CC(=O)Nc2nc(-c3c[nH]c4ncc(Cl)cc34)cs2)c1 [II-104],,5.30 to 6.30,> 6.30
O=C(Cc1ccc2c(c1)OCO2)N(c1nc(-c2c[nH]c3ncccc23)cs1)C1CC1 [II-69],,> 6.30,> 6.30
COc1cccc(CNC(=O)c2ccc(-c3c[nH]c4ncccc34)s2)c1 [II-30],,> 6.30,> 6.30
COc1cccc(CC(=O)Nc2csc(-c3c[nH]c4ncccc34)n2)c1 [II-55],,> 6.30,> 6.30
COc1ccc(CC(=O)Nc2nc(-c3c[nH]c4ncccc34)cs2)c(Cl)c1 [I-18],,> 6.30,> 6.30
COc1cccc(CC(=O)Nc2nc(-c3c[nH]c4nccc(F)c34)cs2)c1 [II-19],,> 6.30,> 6.30
O=C(Cc1cccc(S(=O)(=O)N2CCOCC2)c1)Nc1nc(-c2c[nH]c3nccc(F)c23)cs1 [II-66],,5.30 to 6.30,> 6.30
O=C(Cc1ccc2c(c1)OCO2)Nc1nc(-c2c[nH]c3nccc(F)c23)cs1 [II-18],,> 6.30,> 6.30
CCN(CC)S(=O)(=O)c1cccc(CC(=O)Nc2nc(-c3c[nH]c4ncccc34)cs2)c1 [II-24],,5.30 to 6.30,> 6.30
O=C(Cc1cccc(S(=O)(=O)NCC2CCCO2)c1)Nc1nc(-c2c[nH]c3ncccc23)cs1 (stereo not shown) [II-72],,> 6.30,> 6.30
CS(=O)(=O)Oc1cccc(CC(=O)Nc2nc(-c3c[nH]c4ncccc34)cs2)c1 [I-10],,> 6.30,> 6.30
O=C(Cc1ccccc1)Nc1csc(-c2c[nH]c3ncccc23)n1 [II-62],,> 6.30,> 6.30
CS(=O)(=O)Nc1cccc(CC(=O)Nc2csc(-c3c[nH]c4ncccc34)n2)c1 [II-46],,> 6.30,> 6.30
